In patent US12605374B2, “Methods for drug screening and compositions useful for the inhibition of cell proliferation and/or cell survival” (The Brigham and Women's Hospital, Inc., priority 2019, dated 2026):
Entries after “also recorded” stand apart in the source; their conditions may differ.

Legend:
embryonic zebrafish = assay: Blinded re-screen of top 10 prioritized ChemBridge compounds for developmental phenotypes in embryonic zebrafish; assay type: in vivo
Description: Male and female wild-type (AB) fish were housed and embryos bred for screening using standard protocols. […] 10 mM compound stocks were diluted to 2 mM using DMSO, and 1 μL of each diluted compound solution was introduced into individual wells at 5 hours post fertilization (hpf) using a manual multichannel pipettor (10 uM final concentration). The first and last column of each plate received only DMSO, serving as negative control wells.
Embryos were screened for a series of developmental phenotypes at both 24 and 48 hpf using standard light microscopy. […] Only those wells where at least two of the three embryos were dead or delayed were annotated as a hit for 24 hour death or delay/arrest, respectively.
Resulting scores for each phenotype were used to rank the over 900,000 compounds. Enrichment for compounds with high (>0.95) similarity to known therapeutics (defined using Tanimoto Coefficient of molecular fingerprints) was calculated for each of the 6 ranked lists using gene set enrichment analysis^69. The top 10 highest-ranking compounds from each of the 6 lists were screened as described above, blinded and in duplicate.

Phospholipase C = target: T1, Phospholipase C (Bacillus cereus, UniProt P09598); assay: In vitro Phospholipase C activity assay (EnzChek Direct kit); assay type: biochemical
T1 construct: purchased Thermo Fisher
T1 sequence (P09598 39-283 limits assumed): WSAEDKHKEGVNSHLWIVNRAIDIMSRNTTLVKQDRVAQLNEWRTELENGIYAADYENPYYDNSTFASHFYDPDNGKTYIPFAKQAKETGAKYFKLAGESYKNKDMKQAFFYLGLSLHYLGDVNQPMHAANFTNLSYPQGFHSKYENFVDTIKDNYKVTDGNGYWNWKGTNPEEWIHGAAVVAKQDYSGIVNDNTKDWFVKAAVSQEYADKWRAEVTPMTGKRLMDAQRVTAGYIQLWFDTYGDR
Description: Phospholipase D, C, and A2 activity were measured in vitro using commercial kits. For Phospholipase D, the Amplex Red Phospholipase D Assay Kit (Thermo Fisher) was used with Phospholipase D (Streptomyces chromofuscus—Enzo Life Sciences) added, and FIPI (4-Fluoro-N-(2-(4-(5-fluoro-1H-indol-1-yl)piperidin-1-yl)ethyl)benzamide, 5-Fluoro-2-indolyl deschlorohalopemide) hydrochloride (Sigma) acting as a positive control. To assay Phospholipase A2 activity, we used an EnzChek Phospholipase A2 Assay kit (Thermo Fisher) with Manoalide (Santa Cruz) as a positive control. To assay Phospholipase C activity, we used an EnzChek Direct Phospholipase C Assay Kit (Thermo Fisher) with D609 (Sigma) as a positive control. Tyrosinase activity was measured using a colorimetric Tyrosinase inhibitor screening kit (BioVision) with PTU as a positive control. For each assay, solutions were prepared in 96-well black clear bottom plates and read using a FLUOstar Omega plate reader at the wavelengths recommended by the respective manufacturers, with each measurement representing the average of at least 4 plate wells.

[1] = test system: Phospholipase D (Streptomyces chromofuscus); assay: In vitro Phospholipase D activity assay (Amplex Red kit); assay type: biochemical; settings: listed as DA5

CCC1(CC)CCN(C(=O)c2cc(COc3ccc4ncccc4c3)on2)C1 [ChemBridge ID 65692859, 6-([3-[(3,3-diethylpyrrolidin-1-yl)carbonyl]isoxazol-5-yl]methoxy)quinoline]
Hit (predicted phenotype observed) (embryonic zebrafish; Prediction: Delay/Arrest): Yes
Phenotype Observed (embryonic zebrafish; embryonic zebrafish, 10 uM introduced at 5 hpf, scored at 24 and 48 hpf, blinded, in duplicate): Bud stage at 24 h, dead at 48 h
activity of phospholipase C (Phospholipase C): increased activity
activity of phospholipase D [1]: decrease in the activity; also recorded: inhibit phospholipase D activity
